In PubChem BioAssay AID1963972 (Molecular Pharmacology Branch, DTP, NCI, 2024):

Test system: 945468-187-T-J2-PDC spheroids viability
Assay: Anticancer human tumor 945468-187-T-J2-PDC patient-derived rectal carcinoma cell line growth inhibition [PI3K]
Details: spheroids with HUVEC and MSC; for IC50: curve of first compound; for viability, T/C: stronger effect = lower value
Excerpt: Combinatorial screen of targeted agents with the PI3K inhibitors inavolisib, alpelisib, duvelisib, and copanlisib in multi-cell type tumor spheroids
A high-throughput screen of multi-cell type tumor spheroids was designed to identify active combinations of targeted small molecules and PI3K pathway inhibitors. Complex spheroids include a stromal component modeled by human endothelial cells (HUVEC) and fibroblasts modeled by human mesenchymal stem cells (MSCs). The concentration ranges selected for each drug and investigational agent were based upon clinically achievable concentrations if the clinical Cmax of the agent was known.
Compounds. The drugs and investigational agents: inavolisib (NSC800729), alpelisib (NSC765974), duvelisib (NSC772469), copanlisib (NSC816437), ipatasertib (NSC767898), afuresertib (NSC778305), talazoparib (NSC767125), sapanisertib (NSC764658), selumetinib (NSC741078), tovorafenib (DAY101, NSC766906), vemurafenib (NSC761431), ravoxertinib (NSC781343), sotorasib (NSC818433), MRTX1133 (NSC 836407), abemaciclib (NSC 768073), palbociclib (NSC758247), venetoclax (NSC 766270), SY5609 (NSC837396), enzalutamide (NSC755605), and darolutamide (NSC825331), were obtained from the National Cancer Institute (NCI) Developmental Therapeutics Program Chemical Repository. The FDA-approved anticancer drug set is available from the NCI Developmental Therapeutics Program. […] The stock solutions were prepared in dimethyl sulfoxide (DMSO, Sigma-Aldrich, St. Louis, MO, cat. D2650) at 800-fold the tested concentration and stored at -70 degrees C prior to their use. All drugs and investigational agents were tested over a range starting from a high concentration at or near the clinical Cmax and decreasing in half-log increments. If the clinical Cmax for an agent had not been determined, the highest concentration tested was 10 microM.
Cell Culture. All cells were maintained in an incubator at 37 degrees C and 5% CO2 with 95% humidity. The PDC lines were cultured according to standard operating procedures established by the NCI PDMR (https://pdmr.cancer.gov/sops/default.htm). All PDCs were thawed and cultured in Matrigel-coated flasks prepared with a working solution of 1X Ham's F-12 nutrient mix, without supplementation (Invitrogen, Waltham, MA, cat. 11765054), 100 U/mL penicillin-streptomycin (Invitrogen, cat. 15140122), and 2.5% Matrigel (Corning Inc., Corning, NY, cat. 354248) for the first three passages. The 354836-022-R-J1-PDC, 475296-252-R-J1-PDC, and 997726-040-R-J2-PDC lines were cultured in 6A media, which includes advanced DMEM/F-12 (Thermo Fisher Scientific, cat. 12634028), 10 mM HEPES (Thermo Fisher Scientific, cat. 15630080), 1X GlutaMAX supplement (Thermo Fisher Scientific, cat. 35050061), 0.1 mg/mL primocin (InvivoGen, San Diego, CA, cat. ant-pm-2), 10% defined fetal bovine serum, heat inactivated (HyClone Laboratories Inc., Logan, UT, cat. SH30070.03HI), 50% L-WRN conditioned media (ATCC, cat. CRL-3276), 1.25 mM N-Acetyl-L-cysteine (Sigma-Aldrich, cat. A9165), 10 mM nicotinamide (Sigma-Aldrich, cat. N0636), 1X B-27 supplement (Thermo Fisher Scientific, cat. 17504044), 1X N-2 supplement (Thermo Fisher Scientific, cat. 17502048), and 10 microM Y-27632 dihydrochloride (Tocris Bioscience, Bristol, United Kingdom, cat. 1254). The 624824-186-R-J2-PDC line was cultured in 6C/Colon 1B media, which includes all 6A media components plus 50 ng/mL human EGF recombinant protein (Thermo Fisher Scientific, cat. PHG0311). […]
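Further: spheroids exposed to compounds for seven days before reading.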

In the case of `CCCS(=O)(=O)Nc1ccc(F)c(C(=O)c2c[nH]c3ncc(-c4ccc(Cl)cc4)cc23)c1F` + CC(Nc1ccc2c(c1)OCCn1cc(N3C(=O)OCC3C(F)F)nc1-2)C(N)=O, the IC50 (second compound 0.00316 µM) is reported as > 10 µM, the IC50 (second compound 0.01 µM) is reported as 4.28 µM and the IC50 (second compound 0.0316 µM) is reported as 5.45 µM. For the same compound, the IC50 (second compound 0.1 µM) was 6.98 µM, the IC50 (second compound 0.316 µM) was 5.9 µM and the IC50 (second compound 1 µM) was 5.88 µM. For the same compound, the viability, T/C (second compound 0.00316 µM, first compound 0.0316 µM) was 115%, the viability, T/C (second compound 0.00316 µM, first compound 0.1 µM) was 115% and the viability, T/C (second compound 0.00316 µM, first compound 0.316 µM) was 113%. The viability, T/C (second compound 0.00316 µM, first compound 1 µM) was 97.1%, the viability, T/C (second compound 0.00316 µM, first compound 3.16 µM) was 74.7% and the viability, T/C (second compound 0.00316 µM, first compound 10 µM) was 53.6%. For the same compound, the viability, T/C (second compound 0.01 µM, first compound 0.0316 µM) was 113%, the viability, T/C (second compound 0.01 µM, first compound 0.1 µM) was 115% and the viability, T/C (second compound 0.01 µM, first compound 0.316 µM) was 105%. The viability, T/C (second compound 0.01 µM, first compound 1 µM) was 77.1%, the viability, T/C (second compound 0.01 µM, first compound 3.16 µM) was 74.8% and the viability, T/C (second compound 0.01 µM, first compound 10 µM) was 7.68%. The viability, T/C (second compound 0.0316 µM, first compound 0.0316 µM) was 103%, the viability, T/C (second compound 0.0316 µM, first compound 0.1 µM) was 98.8% and the viability, T/C (second compound 0.0316 µM, first compound 0.316 µM) was 98.8%. It also gave a viability, T/C (second compound 0.0316 µM, first compound 1 µM) of 92.1%, a viability, T/C (second compound 0.0316 µM, first compound 3.16 µM) of 89.2% and a viability, T/C (second compound 0.0316 µM, first compound 10 µM) of 6.32%. It also gave a viability, T/C (second compound 0.1 µM, first compound 0.0316 µM) of 92.3%, a viability, T/C (second compound 0.1 µM, first compound 0.1 µM) of 109% and a viability, T/C (second compound 0.1 µM, first compound 0.316 µM) of 107%. It also gave a viability, T/C (second compound 0.1 µM, first compound 1 µM) of 92.8%, a viability, T/C (second compound 0.1 µM, first compound 3.16 µM) of 90.2% and a viability, T/C (second compound 0.1 µM, first compound 10 µM) of 32.3%. The viability, T/C (second compound 0.316 µM, first compound 0.0316 µM) was 83.4%, the viability, T/C (second compound 0.316 µM, first compound 0.1 µM) was 88.8% and the viability, T/C (second compound 0.316 µM, first compound 0.316 µM) was 85.3%. It also gave a viability, T/C (second compound 0.316 µM, first compound 1 µM) of 85.8%, a viability, T/C (second compound 0.316 µM, first compound 3.16 µM) of 78.1% and a viability, T/C (second compound 0.316 µM, first compound 10 µM) of 26.1%. For the same compound, the viability, T/C (second compound 1 µM, first compound 0.0316 µM) was 78.2%, the viability, T/C (second compound 1 µM, first compound 0.1 µM) was 81% and the viability, T/C (second compound 1 µM, first compound 0.316 µM) was 77.4%. The viability, T/C (second compound 1 µM, first compound 1 µM) was 87.9%, the viability, T/C (second compound 1 µM, first compound 3.16 µM) was 80.3% and the viability, T/C (second compound 1 µM, first compound 10 µM) was 24%.
